Assay results: patent US20230013669A1, “Antibacterial Treatment Using a Cannabinoid and an Active Agent” (priority 2019, published 2023)
≈ marks a conversion by molar mass, not a printed value. Where “and” joins values, the source holds several entries; their conditions need not be identical. Equal values may be shown once. Read-outs that look alike come from different tables or passages of the source. Residues, ends and D or L forms follow the SMILES beside them.

Columns and labels:
Type in all cases: cell-based
[1] = system: Escherichia coli ATCC 25922 (GN_001); assay: MIC micro-broth dilution assay (Example 1 method); details: for MIC: Escherichia coli
Procedure: (§7) The plates were covered and incubated at 37° C. for 18-20 h.
(§8) Optical density was read at 600 nm (OD600) using Tecan M1000 Pro Spectrophotometer. […] Analysis was performed using Microsoft Excel.

[2] = system: Acinetobacter baumannii ATCC 19606 (GN_034); assay: MIC micro-broth dilution assay (Example 1 method); details: for MIC: Acinetobacter baumannii
Procedure: as §7, §8

[3] = system: Pseudomonas aeruginosa ATCC 27853 (GN_042); assay: MIC micro-broth dilution assay (Example 1 method); details: for MIC: Pseudomonas aeruginosa
Procedure: as §7, §8

[4] = system: Klebsiella pneumoniae ATCC 700603; assay: MIC micro-broth dilution assay (Example 1 method); details: for MIC: Klebsiella pneumoniae
Procedure: Methods were as for Example 1. Cannabidiol was tested in combination with cefotetan.
Methods were as for Example 1. Cannabidiol was tested in combination with aztreonam.
Methods were as for Example 1. Cannabidiol was tested in combination with cefepime.
Methods were as for Example 1. Cannabidiol was tested in combination with octapeptin C4.
Methods were as for Example 1. Cannabidiol was tested in combination with Spero SPR206. The experiments were carried out three times.

[5] = system: Acinetobacter baumannii 03.021.1 (GN_038), Colistin resistant; assay: MIC micro-broth dilution assay (Example 1 method); details: for Minimum Inhibitory Concentration (MIC): replicates, listed as MCC_000636
Procedure: (§1) Analysis was performed using Microsoft Excel.

[6] = system: Acinetobacter baumannii 03.021.1 (GN_039), Colistin resistant; assay: MIC micro-broth dilution assay (Example 1 method); details: for Minimum Inhibitory Concentration (MIC): replicates, listed as MCC_000636
Procedure: as §1

[7] = system: Enterobacter cloacae CI Patercon BoxNo: 79 (GN_016), MDR; assay: MIC micro-broth dilution assay (Example 1 method); details: for Minimum Inhibitory Concentration (MIC): replicates, listed as MCC_000636
Procedure: as §1

[8] = system: Escherichia coli HS71 (GN_110), CTX-M; assay: MIC micro-broth dilution assay (Example 1 method); details: Example 9 Table 35, compound alone, replicates
Procedure: as §1

[9] = system: Klebsiella pneumoniae BAA-2146 (GN_045), NDM-1; assay: MIC micro-broth dilution assay (Example 1 method); details: Example 9 Table 35, compound alone, replicates, listed as MCC_000636
Procedure: as §1

[10] = system: Pseudomonas aeruginosa FADDI-PA067 (GN_177), Polymyxin resistant; assay: MIC micro-broth dilution assay (Example 1 method); details: GN_177
Procedure: as §1

[11] = system: Acinetobacter baumannii AL1851, IpxA mutant; Lipid A deficient (GN_237); assay: MIC broth microdilution, 96-well, visual reading (Example 11)
Procedure: (§2) The experiment was performed to investigate the antimicrobial activity of cannabidiol (CBD) against an LPS deficient strain (GN_237 Acinetobacter baumannii, IpxA mutant; Lipid A deficient; obtained by colistin selection from base strain ATCC 19606) and its parent strain (GN_034, Acinetobacter baumannii, ATCC 19606).
(§3) All plates had flat bottom wells and were covered with low-evaporation lids.
(§4) Two biological replicates ×2 technical replicates were conducted on separate days (final n=4). Inhibition of bacterial growth was determined visually, where the MIC was recorded as the lowest compound concentration with no visible growth.

[12] = system: Acinetobacter baumannii ATCC 19606 Type Strain (GN_034); assay: as above; details: Example 11 Table 41; GN_034; n=4 replicates
Procedure: as §2, §3, §4

[13] = system: Acinetobacter baumannii ATCC 19606; assay: microbe, parasite or virus in culture
Procedure: (§5) The inoculum was then diluted in CaMHB to give a mid-log phase cultures and 40 μL was added to each well from column 1 to column 18, and column 23. 45 μL of the inoculum was added to each well from column 19 to column 22 to give the final cell density of 5×10^5 CFU/mL. The plates were incubated at 37° C. for 18-20h.
(§6) Optical density was read at 600 nm (OD600) using Gen5 Spectrophotometer. […] Analysis was performed using Microsoft Excel.

[14] = system: Escherichia coli ATCC 25922; assay: microbe, parasite or virus in culture
Procedure: as §5, §6

[15] = system: Klebsiella pneumoniae ATCC 700603; assay: microbe, parasite or virus in culture
Procedure: as §5, §6

[16] = system: Pseudomonas aeruginosa ATCC 27853; assay: microbe, parasite or virus in culture
Procedure: as §5, §6

[17] = ATCC19606, read-out: Minimum Inhibitory Concentration (MIC), Example 5 Table 19, GN_034, compound alone, replicates
[18] = Example 5 Table 19, GN_034, compound alone, replicates
[19] = Example 8 Table 31, compound alone
[20] = Example 9 Table 35, compound alone
[21] = Example 10 Table 38, compound alone, replicates

CO/N=C(\C(=O)N[C@@H]1C(=O)N2C(C(=O)[O-])=C(C[N+]3(C)CCCC3)CS[C@H]12)c1csc(N)n1 [Cefepime]
MIC of Cefepime ([1]; Cefepime alone): 0.062 µg/mL
MIC ([1]; ATCC25922, read-out: MIC of Cefepime, Cefepime alone): 0.031 µg/mL
MIC ([2]; ATCC19606, read-out: MIC of Cefepime, Cefepime alone): 16 µg/mL
MIC ([2]; ATCC19606, read-out: MIC of Cefepime, Example 5 Table 20, GN_034): 16 µg/mL
MIC [2, 17]: 16 µg/mL (≈ 33.3 µM)
Minimum Inhibitory Concentration (MIC) [2, 18]: 16 µg/mL
MIC ([3]; ATCC27853, read-out: MIC of Cefepime): 256 µg/mL
MIC ([4]; ATCC700603, read-out: MIC of Cefepime): 1 µg/mL

Polymyxin B
Minimal Inhibitory Concentration (MIC) ([1]; Example 1 Table 3, GN_001, compound alone, replicates, listed as MCC_000636): 1 µg/mL and 0.5 µg/mL
Minimum Inhibitory Concentration (MIC) ([1]; Example 6 Table 23, GN_001, compound alone, replicates, listed as MCC_000636): 0.25 μg/mL (2×) and 0.5 μg/mL and 1 μg/mL
MIC of Polymyxin B ([1]; Example 6 Table 24, GN_001): 1 µg/mL
Minimal Inhibitory Concentration (MIC) ([2]; Example 1 Table 3, GN_034, compound alone, replicates, listed as MCC_000636): 1 µg/mL and 0.5 µg/mL
Minimum Inhibitory Concentration (MIC) ([2]; Example 6 Table 23, GN_034, compound alone, replicates, listed as MCC_000636): 0.25 µg/mL and 0.125 µg/mL and 2 µg/mL and 1 µg/mL
MIC of Polymyxin B ([2]; Example 6 Table 24, GN_034): 1 µg/mL and 2 µg/mL
Minimal Inhibitory Concentration (MIC) ([3]; Example 1 Table 3, GN_042, compound alone, replicates): 1 µg/mL
Minimum Inhibitory Concentration (MIC) ([3]; Example 6 Table 23, GN_042, compound alone, replicates, listed as MCC_000636): 0.5 μg/mL (2×) and 2 μg/mL (2×)
MIC of Polymyxin B ([3]; Example 6 Table 24, GN_042): 2 µg/mL
Minimum Inhibitory Concentration (MIC) [5, 19]: 0.125 μg/mL (3×) and 0.25 μg/mL
MIC of MCC_00636 ([5]; Example 8 Table 32): 1 µg/mL
Minimum Inhibitory Concentration (MIC) [5, 20]: 0.125 μg/mL (3×) and 0.25 μg/mL
Minimum Inhibitory Concentration (MIC) [6, 19]: 0.5 μg/mL and 0.25 μg/mL (3×)
MIC of MCC_00636 ([6]; Example 8 Table 32): 1 µg/mL
Minimum Inhibitory Concentration (MIC) [6, 20]: 0.5 μg/mL and 0.25 μg/mL (3×)
Minimum Inhibitory Concentration (MIC) [7, 19]: 16 μg/mL and 8 μg/mL (3×)
MIC of MCC_00636 ([7]; Example 8 Table 32): 8 µg/mL
Minimum Inhibitory Concentration (MIC) [7, 20]: 16 μg/mL and 8 μg/mL (3×)
Minimum Inhibitory Concentration (MIC) [8]: 0.0625 µg/mL
Minimum Inhibitory Concentration (MIC) [9]: 0.5 μg/mL and 0.25 μg/mL (3×)
Minimum Inhibitory Concentration (MIC) ([10]; Example 8 Table 31, compound alone, replicates): 2 µg/mL
MIC of MCC_00636 ([10]; Example 8 Table 32): 2 µg/mL
activity alone ([11]; Example 11, Lipid A deficient GN_237): resistant
MIC (Test results) ([11]; Example 11 Table 41, GN_237, n=4 replicates): 128 µg/mL
MIC (Test results) [12]: >128 µg/mL

CO[C@@]1(NC(=O)C2SC(=C(C(N)=O)C(=O)O)S2)C(=O)N2C(C(=O)O)=C(CSc3nnnn3C)CS[C@@H]21 (some centres unmarked) [Cefotetan]
MIC ([1]; ATCC25922, read-out: MIC of Cefotetan, Cefotetan alone): 0.25 µg/mL
MIC ([1]; ATCC25922, read-out: MIC of Cefotetan, Escherichia coli ATCC 25922): 0.25 µg/mL
MIC ([2]; ATCC19606, read-out: MIC of Cefotetan, Acinetobacter baumannii ATCC 19606): 256 µg/mL
MIC ([2]; ATCC19606, read-out: MIC of Cefotetan, Cefotetan alone): 256 µg/mL
MIC of Cefotetan ([3]; Cefotetan alone): 256 µg/mL
MIC ([3]; ATCC27853, read-out: MIC of Cefotetan): 256 µg/mL
MIC of Cefotetan ([4]; Cefotetan alone): 1 µg/mL
MIC ([4]; ATCC700603, read-out: MIC of Cefotetan, Cefotetan alone): 0.5 µg/mL

CC(C)C[C@@H]1NC(=O)[C@@H](Cc2ccccc2)NC(=O)[C@H](CCN)NC(=O)[C@@H](NC(=O)[C@H](CCN)NC(=O)[C@@H](N)[C@@H](C)O)CCNC(=O)[C@H]([C@@H](C)O)NC(=O)[C@H](CCN)NC(=O)[C@H](CCN)NC1=O [PMBN] (HELM PEPTIDE1{T.[Dab].[Dab].[Dab].[dF].L.[Dab].[Dab].T}$PEPTIDE1,PEPTIDE1,3:R3-9:R2$$$V2.0; N-terminus assumed; bridges inferred)
antimicrobial activity alone ([13]; Example 10): poor antimicrobial activity
MIC [13, 21]: >32 µg/mL
MIC of PMBN ([13]; Example 10 Table 39): >32 µg/mL
antimicrobial activity alone ([14]; Example 10): poor antimicrobial activity
MIC [14, 21]: >32 µg/mL
MIC of PMBN ([14]; Example 10 Table 39): >32 µg/mL
antimicrobial activity alone ([15]; Example 10): poor antimicrobial activity
MIC [15, 21]: >32 µg/mL
MIC of PMBN ([15]; Example 10 Table 39): >32 µg/mL
antimicrobial activity alone ([16]; Example 10): poor antimicrobial activity
MIC [16, 21]: >32 µg/mL
MIC of PMBN ([16]; Example 10 Table 39): >32 µg/mL

C[C@H]1[C@H](NC(=O)/C(=N\OC(C)(C)C(=O)O)c2csc(N)n2)C(=O)N1S(=O)(=O)O [Aztreonam]
MIC ([2]; ATCC19606, read-out: MIC of Aztreonam, Aztreonam alone): 32 µg/mL
MIC ([2]; ATCC19606, read-out: MIC of aztreonam, Example 5 Table 20, GN_034): 32 µg/mL
MIC [2, 17]: 16 µg/mL (≈ 36.7 µM)
Minimum Inhibitory Concentration (MIC) [2, 18]: 16 µg/mL
MIC ([3]; ATCC27853, read-out: MIC of Aztreonam): 4 µg/mL
MIC ([4]; ATCC700603, read-out: MIC of Aztreonam, Aztreonam alone): 64 µg/mL
